Assay results: PubChem BioAssay (NCI)
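Step 1: Grow cells in 96-well plates. Step 2: Expose to compound for 48 hours at 5 concentrations. Step 3: Interpolate endpoints linearly; if unreached, use highest concentration. At the TGI there is no net growth.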

What was measured:
Experiment in all cases: NCI tumour cell line growth inhibition, 48 h
SNB-75 CNS = tested on: SNB-75 CNS
HCT-116 colon = tested on: HCT-116 colon
COLO 205 colon = tested on: COLO 205 colon
HS 578T breast = tested on: HS 578T breast
DU-145 prostate = tested on: DU-145 prostate
HL-60(TB) leukemia = tested on: HL-60(TB) leukemia
RPMI-8226 leukemia = tested on: RPMI-8226 leukemia
HT29 colon = tested on: HT29 colon
IGROV1 ovarian = tested on: IGROV1 ovarian
SNB-19 CNS = tested on: SNB-19 CNS
A498 renal = tested on: A498 renal
MCF7 breast = tested on: MCF7 breast
UACC-62 melanoma = tested on: UACC-62 melanoma
OVCAR-3 ovarian = tested on: OVCAR-3 ovarian
K-562 leukemia = tested on: K-562 leukemia
OVCAR-8 ovarian = tested on: OVCAR-8 ovarian
UO-31 renal = tested on: UO-31 renal
NCI/ADR-RES ovarian = tested on: NCI/ADR-RES ovarian
HCT-15 colon = tested on: HCT-15 colon
T-47D breast = tested on: T-47D breast
HOP-62 NSCLC = tested on: HOP-62 NSCLC
HOP-92 NSCLC = tested on: HOP-92 NSCLC
NCI-H23 lung = tested on: NCI-H23 lung
U251 CNS = tested on: U251 CNS
NCI-H226 lung = tested on: NCI-H226 lung
HCC-2998 colon = tested on: HCC-2998 colon
NCI-H460 lung = tested on: NCI-H460 lung
M14 melanoma = tested on: M14 melanoma
SK-MEL-28 melanoma = tested on: SK-MEL-28 melanoma
NCI-H522 lung = tested on: NCI-H522 lung
SR leukemia = tested on: SR leukemia
MDA-N = tested on: MDA-N
SF-295 CNS = tested on: SF-295 CNS
CCRF-CEM leukemia = tested on: CCRF-CEM leukemia
SK-MEL-5 melanoma = tested on: SK-MEL-5 melanoma
MOLT-4 leukemia = tested on: MOLT-4 leukemia
CAKI-1 renal = tested on: CAKI-1 renal
SN12C renal = tested on: SN12C renal
BT-549 breast = tested on: BT-549 breast
OVCAR-5 ovarian = tested on: OVCAR-5 ovarian
SK-OV-3 ovarian = tested on: SK-OV-3 ovarian
SK-MEL-2 melanoma = tested on: SK-MEL-2 melanoma
MALME-3M melanoma = tested on: MALME-3M melanoma
RXF 393 renal = tested on: RXF 393 renal
MDA-MB-435 = tested on: MDA-MB-435
PC-3 prostate = tested on: PC-3 prostate
KM12 colon = tested on: KM12 colon
TK-10 renal = tested on: TK-10 renal
EKVX NSCLC = tested on: EKVX NSCLC
SW-620 colon = tested on: SW-620 colon
ACHN renal = tested on: ACHN renal
A549 NSCLC = tested on: A549 NSCLC
MDA-MB-231 breast = tested on: MDA-MB-231 breast
UACC-257 melanoma = tested on: UACC-257 melanoma
786-0 renal = tested on: 786-0 renal

O=C(N/N=C(/c1ccccc1)C(F)(F)F)c1ccncc1
TGI (SNB-75 CNS): > 100 µM
TGI (HCT-116 colon): > 100 µM
TGI (COLO 205 colon): > 100 µM
TGI (HS 578T breast): > 100 µM
TGI (DU-145 prostate): > 100 µM
TGI (HL-60(TB) leukemia): > 100 µM
TGI (RPMI-8226 leukemia): > 100 µM
TGI (HT29 colon): > 100 µM
TGI (IGROV1 ovarian): > 100 µM
TGI (SNB-19 CNS): > 100 µM
TGI (A498 renal): > 100 µM
TGI (MCF7 breast): > 100 µM
TGI (UACC-62 melanoma): > 100 µM
TGI (OVCAR-3 ovarian): > 100 µM
TGI (K-562 leukemia): > 100 µM
TGI (OVCAR-8 ovarian): > 100 µM
TGI (UO-31 renal): > 100 µM
TGI (NCI/ADR-RES ovarian): > 100 µM
TGI (HCT-15 colon): > 100 µM
TGI (T-47D breast): > 100 µM
TGI (HOP-62 NSCLC): > 100 µM
TGI (HOP-92 NSCLC): > 100 µM
TGI (NCI-H23 lung): > 100 µM
TGI (U251 CNS): > 100 µM
TGI (NCI-H226 lung): > 100 µM
TGI (HCC-2998 colon): > 100 µM
TGI (NCI-H460 lung): > 100 µM
TGI (M14 melanoma): > 100 µM
TGI (SK-MEL-28 melanoma): > 100 µM
TGI (NCI-H522 lung): > 100 µM
TGI (SR leukemia): > 100 µM
TGI (MDA-N): > 100 µM
TGI (SF-295 CNS): > 100 µM
TGI (CCRF-CEM leukemia): > 100 µM
TGI (SK-MEL-5 melanoma): > 100 µM
TGI (MOLT-4 leukemia): > 100 µM
TGI (CAKI-1 renal): > 100 µM
TGI (SN12C renal): > 100 µM
TGI (BT-549 breast): > 100 µM
TGI (OVCAR-5 ovarian): > 100 µM
TGI (SK-OV-3 ovarian): > 100 µM
TGI (SK-MEL-2 melanoma): > 100 µM
TGI (MALME-3M melanoma): > 100 µM
TGI (RXF 393 renal): > 100 µM
TGI (MDA-MB-435): > 100 µM
TGI (PC-3 prostate): > 100 µM
TGI (KM12 colon): > 100 µM
TGI (TK-10 renal): > 100 µM

CCOC(=O)c1c(N)sc2c1C(C(=O)OCC)CC2 (centres undefined)
TGI (SNB-75 CNS): > 100 µM
TGI (HCT-116 colon): > 100 µM
TGI (EKVX NSCLC): > 100 µM
TGI (COLO 205 colon): > 100 µM
TGI (HS 578T breast): > 100 µM
TGI (HL-60(TB) leukemia): > 100 µM
TGI (SW-620 colon): > 100 µM
TGI (RPMI-8226 leukemia): > 100 µM
TGI (ACHN renal): > 100 µM
TGI (A549 NSCLC): > 100 µM
TGI (HT29 colon): > 100 µM
TGI (IGROV1 ovarian): > 100 µM
TGI (SNB-19 CNS): > 100 µM
TGI (A498 renal): 82.1 µM
TGI (MCF7 breast): > 100 µM
TGI (UACC-62 melanoma): > 100 µM
TGI (K-562 leukemia): > 100 µM
TGI (OVCAR-8 ovarian): > 100 µM
TGI (MDA-MB-231 breast): > 100 µM
TGI (UO-31 renal): > 100 µM
TGI (HCT-15 colon): > 100 µM
TGI (T-47D breast): > 100 µM
TGI (HOP-62 NSCLC): > 100 µM
TGI (HOP-92 NSCLC): > 100 µM
TGI (NCI-H23 lung): > 100 µM
TGI (U251 CNS): > 100 µM
TGI (NCI-H226 lung): > 100 µM
TGI (HCC-2998 colon): > 100 µM
TGI (NCI-H460 lung): > 100 µM
TGI (M14 melanoma): > 100 µM
TGI (SK-MEL-28 melanoma): > 100 µM
TGI (SR leukemia): > 100 µM
TGI (MDA-N): > 100 µM
TGI (UACC-257 melanoma): > 100 µM
TGI (SK-MEL-5 melanoma): > 100 µM
TGI (MOLT-4 leukemia): > 100 µM
TGI (SN12C renal): > 100 µM
TGI (BT-549 breast): > 100 µM
TGI (OVCAR-5 ovarian): > 100 µM
TGI (786-0 renal): > 100 µM
TGI (SK-MEL-2 melanoma): > 100 µM
TGI (MALME-3M melanoma): > 100 µM
TGI (RXF 393 renal): > 100 µM
TGI (PC-3 prostate): > 100 µM
TGI (KM12 colon): > 100 µM
TGI (TK-10 renal): > 100 µM
